Measurements published in PMC5597121, “The human bitter taste receptor T2R38 is broadly tuned for bacterial compounds” (PLoS ONE, 2017).
Several values for one entry are separate records, joined by “and”; a condition that tells them apart may be missing. Identical values can stand only once. Entries after “also recorded” stand apart in the source; their conditions may differ.

Columns and labels:
T2R38 = biological target: T1, T2R38 (Homo sapiens, UniProt P59533, A49P/I296V); assay: Single cell calcium imaging, Peakrapid cells (Gα16gustducin44) transiently transfected with T2R38; format: cell-based; conditions: for average calcium response, % of the one induced by 0.1 mM of PTC: dissolved in DMSO 1.5% (209 mM); for specific activation of T2R38: ethanol-solubilized; for response of T2R38: solubilized in the aqueous buffer, 2 mM
T1 construct: leader: first 45 amino acids of rat somatostatin receptor subtype 3 (SSTR3) (N); expressed in transfected cells; host or cells: Peakrapid cells (HEK293 derivative, ATCC CRL-2828) stably expressing Galpha16gustducin44, co-transfected with human RTP4
T1 sequence (P59533 1-333 A49P/I296V): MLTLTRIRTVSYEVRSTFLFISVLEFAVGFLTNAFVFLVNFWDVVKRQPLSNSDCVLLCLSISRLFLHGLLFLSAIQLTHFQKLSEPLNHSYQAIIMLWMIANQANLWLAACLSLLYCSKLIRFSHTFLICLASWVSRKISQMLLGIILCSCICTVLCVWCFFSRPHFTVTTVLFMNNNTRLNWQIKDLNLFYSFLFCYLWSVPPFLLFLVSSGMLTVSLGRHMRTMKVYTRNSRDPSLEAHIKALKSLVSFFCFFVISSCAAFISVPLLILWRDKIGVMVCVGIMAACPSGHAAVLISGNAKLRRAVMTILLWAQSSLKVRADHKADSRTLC
From the text: The coding sequences of either the functional (PAV, GenBank accession number AY258597.1) and non-functional (AVI, GenBank accession number AF494231.1) were amplified from human genomic DNA by polymerase chain reaction.
These coding sequences were cloned in a pEFIB backbone vector in translational fusion with the coding sequence of a leader sequence corresponding to the 45 first amino acids of the rat somatostatin receptor subtype 3 [20]. The constructs were verified by sequencing. The coding sequence of RTP4 (Genbank accession number AY562238.1) was amplified from human spleen cDNA and cloned a pCI backbone vector.
The Gα16gustducin44 sequence was generated by swapping the last 132 nucleotides of the G α16 with the corresponding terminal sequence of the Gα-gustducin [21] and was cloned in a pIRES-Puro plasmid. This vector was transfected in the Peakrapid cell line (ATCC reference: CRL-2828™; purchased from LGC Standards SARL, Molsheim, FRANCE), HEK293 cell line derivative, cultured in EMEM culture medium (reference BE12-136F; Lonza, Vervier, BELGIUM) supplemented with 10% of foetal bovine serum (Sigma-Aldrich, Bornem, Belgium) and 1 μg/ml of Puromycin to allow the selection of recombinant cell populations. Cell clones expressing the Gα16gustducin44 were selected and the clone presenting the best functional response of T2R38 to phenylthicarbamide was used for the study (see below).
(§1) The Peakrapid cell line expressing stably a chimeric Gα16gustducin44 G protein [21] was used. 40 000 cells were seeded in each well of a black/clear poly-D-lysine cellware pre-coated 96-well plate (Biocoat®, Becton-Dickinson, Erembodegem, Belgium) and transiently transfected with 50 ng of plasmid DNA containing the receptor sequence or not (empty vector) and with 50 ng of chaperone protein RTP4 per well. Forty hours after transfection, cells were incubated with the calcium-sensitive dye Fluo4 (Life Technologies, Oregon, USA) solubilized at 10 μg/ml in a buffer containing EMEM (150 mM NaCl, 5 mM KCl, 2 mM CaCl2, 1.2 mM MgCl2, 10 mM glucose), 10 mM HEPES, 0.01% (v/v) Pluronic F127, 0.1% (w/v) bovine serum albumin. After 1 h incubation at 37°C, cells were rinsed twice with the same buffer without Fluo4 and left in 50 μl buffer (prior ligand injection). Measurement were performed on a platform based on a motorized Axiobserver Z1 fluorescence microscope piloted by a Axiovision software (Zeiss, Jena, Germany) as described previously. For each selected well, images were taken 1 per second, during 30 seconds. 50 μl of the buffer containing the ligand twice concentrated was injected on the 2nd second of the time lapse record.
After time lapse record, the number of responding cells in each injected well was determined using ImageJ 1.34 (Rasband, W.S., ImageJ, National Institutes of Health, Bethesda, Maryland, USA, http://rsb.info.nih.gov/ij/1997-2004), and expressed as the percentage of the surface of a microscope field covered by activated cells with respect to the total surface of the field covered by confluent cells. Automated determination of the surface occupied by responding cells is easier to perform than a cell counting. The resulting percentage of positive surface provided a convenient estimation of the percentage of responding cells, as observed by comparing the percentage of positive surface and percentage of responsive cells determined by direct counting, in the same experiment. In agreement with the literature, the percentage of responding cells was proportional to the agonist concentration. During experiment in each plate, at least 2 wells were tested with phenylthiocarbamide (PTC) at 0.1 mM, which is one of the best characterized agonist of T2R38 in the literature. The activation of T2R38 by PTC allows normalization of the result of other tested molecules. The results were thus expressed as the percentage of PTC activation. […]

[1] = tested on: mock transfected cells (empty vector); assay: Single cell calcium imaging, control: mock transfected (empty vector) Peakrapid cells; format: cell-based, human
Protocol: as §1
After time lapse record, the number of responding cells in each injected well was determined using ImageJ 1.34 (Rasband, W.S., ImageJ, National Institutes of Health, Bethesda, Maryland, USA, http://rsb.info.nih.gov/ij/1997-2004), and expressed as the percentage of the surface of a microscope field covered by activated cells with respect to the total surface of the field covered by confluent cells. Automated determination of the surface occupied by responding cells is easier to perform than a cell counting. The resulting percentage of positive surface provided a convenient estimation of the percentage of responding cells, as observed by comparing the percentage of positive surface and percentage of responsive cells determined by direct counting, in the same experiment. In agreement with the literature, the percentage of responding cells was proportional to the agonist concentration. During experiment in each plate, at least 2 wells were tested with phenylthiocarbamide (PTC) at 0.1 mM, which is one of the best characterized agonist of T2R38 in the literature. The activation of T2R38 by PTC allows normalization of the result of other tested molecules. The results were thus expressed as the percentage of PTC activation. In scaling calcium imaging assays using this latter receptor, concentration-responses curves were performed and data were fitted to a four parameter logistic equation: y=min+ (max− min)/1+10 ^(logEC50−x)nH . Min and max are the minimum and the maximum values of the percentage of cell-activated surface respectively, y is the percentage of cell-activated surface at the x concentration and nH is the Hill coefficient.

[2] = 2mM (no organic solvent), listed as HSL-C4
[3] = 2mM in DMSO 1.5%, listed as HSL-C4
[4] = 2mM in EtOH 0,4%, listed as HSL-C4
[5] = 1mM in DMSO 1.5%, listed as HSL-C12
[6] = 1mM in EtOH 2%, listed as HSL-C12

Structure (SMILES): CCCC(=O)N[C@H]1CCOC1=O [C4HSL, N-butyryl-L-homoserine lactone, reference compound]
- agonist activity on T2R38 (in words) (T2R38): are not agonists of the receptor in our hands
- percentage of surface covered by activated cells (T2R38; [2]): 0.38% and 0.93% and 0.34% and 0.53% and 0.11% and 0.17%
- percentage of surface covered by activated cells (T2R38; [3]): 6.92% and 3.48% and 5.97% and 2.36% and 9.56% and 4.46%
- percentage of surface covered by activated cells (T2R38; [4]): 0.27% and 1.95% and 2.21% and 0.24% and 0.29% and 1.29%
- average calcium response, % of the one induced by 0.1 mM of PTC (T2R38): 33%
- specific activation of T2R38 (T2R38): did not trigger a specific activation of T2R38
- specific activation of T2R38 (T2R38; listed as HSLC4): remained without effect on the receptor
- response of T2R38 (T2R38): did not elicit a response of T2R38
- response of T2R38 (T2R38; listed as HSLC4): remained without effect on the receptor
- percentage of surface covered by activated cells [1, 2]: 0.08% and 2.07% and 0.35% and 0.32% and 0.65% and 0.13%
- percentage of surface covered by activated cells [1, 3]: 0.56% and 1.82% and 1.06% and 0.36% and 0.33% and 0.98%
- percentage of surface covered by activated cells [1, 4]: 0.40% and 0.69% and 0.43% and 0.56% and 1.49% and 0.68%

Structure (SMILES): CCCCCCCCCC(=O)CC(=O)N[C@H]1CCOC1=O [C12HSL, N-3-oxo-dodecanoyl-L-homoserine lactone, reference compound]
- agonist activity on T2R38 (in words) (T2R38): are not agonists of the receptor in our hands
- percentage of surface covered by activated cells (T2R38; 0.1mM in DMSO 0.15%): 0.46% and 1.07% and 1.52% and 0.39%
- percentage of surface covered by activated cells (T2R38; 0.1mM in DMSO 0.3%): 0.20% and 0.64% and 1.46% and 0.93%
- specific activation of the receptor (T2R38; 0.1 mM with either 0.3% or 0.15% DMSO in the incubation buffer): did not trigger any specific activation of the receptor; also recorded: did not trigger any specific activation of T2R38
- percentage of surface covered by activated cells (T2R38; [5]): 8.51% and 3.40% and 8.12% and 5.47% and 4.84% and 9.74%
- percentage of surface covered by activated cells (T2R38; [6]): 2.04% and 1.92% and 1.33% and 4.51% and 5.83% and 3.09%
- average calcium response, % of the one induced by 0.1 mM of PTC (T2R38): 42%
- specific activation of T2R38 (T2R38): did not trigger a specific activation of T2R38
- specific activation of T2R38 (T2R38; listed as HSLC12): remained without effect on the receptor
- percentage of surface covered by activated cells ([1]; 0.1mM in DMSO 0.15%): 0.22% and 0.19%
- percentage of surface covered by activated cells ([1]; 0.1mM in DMSO 0.3%): 0.00881% and 0.16%
- percentage of surface covered by activated cells [1, 5]: 0.92% and 1.51% and 1.40% and 0.48% and 0.97% and 3.05%
- percentage of surface covered by activated cells [1, 6]: 0.58% and 7.03% and 2.23% and 2.90% and 5.38% and 0.28%

Structure (SMILES): NC(=S)Nc1ccccc1 [PTC, phenylthiocarbamide, reference compound]
- percentage of surface covered by activated cells (T2R38; PTC 1e-7 M): 0.32% and 0.0439% and 0.30% and 0.38% and 0.0433% and 0.37%
- percentage of surface covered by activated cells (T2R38; PTC 5.31987e-7 M): 0.29% and 0.21% and 0.40% and 0.74%
- percentage of surface covered by activated cells (T2R38; PTC 7.66061e-7 M): 0.42% and 0.94% and 0.57%
- percentage of surface covered by activated cells (T2R38; PTC 1e-6 M): 0.15% and 0.33% and 0.74% and 1.61% and 0.19% and 0.16%
- percentage of surface covered by activated cells (T2R38; PTC 3.16456e-6 M): 0.91% and 1.80% and 0.81% and 1.93% and 1.12% and 1.19%
- percentage of surface covered by activated cells (T2R38; PTC 1e-5 M): 9.30% and 8.69% and 5.20% and 5.77% and 8.28% and 3.33%
- percentage of surface covered by activated cells (T2R38; PTC 0.0001 M): 16.96% and 16.52% and 12.58% and 13.19% and 14.04% and 11.95%
- response of T2R38 PAV transfected cells (S7_fig raw data) (T2R38; PTC 0.1 mM, T2R38 PAV, experiments 1-5): 30% and 29% and 24% and 17% and 23%
- percentage of surface covered by activated cells (T2R38; PTC 0.001 M): 16.18% and 8.32% and 10.10% and 7.45% and 11.65% and 8.92%
- EC50 (T2R38; concentration-response curve, mean ± SEM of n = 3 experiments, read-out: EC50): 9.7 ± 0.4 µM
- percentage of surface covered by activated cells ([1]; PTC 1e-7 M): 0.29% and 0.31% and 0.20%
- percentage of surface covered by activated cells ([1]; PTC 5.31987e-7 M): 0.69% and 0.47%
- percentage of surface covered by activated cells ([1]; PTC 7.66061e-7 M): 0.32% and 0.90%
- percentage of surface covered by activated cells ([1]; PTC 1e-6 M): 0.45% and 0.40% and 0.59%
- percentage of surface covered by activated cells ([1]; PTC 3.16456e-6 M): 0.30% and 0.15% and 0.74%
- percentage of surface covered by activated cells ([1]; PTC 1e-5 M): 0.11% and 0.26% and 0.07%
- percentage of surface covered by activated cells ([1]; PTC 0.0001 M): 0.06% and 0.11%
- response of empty vector transfected cells (S7_fig raw data) ([1]; PTC 0.1 mM, empty vector, experiments 1-5): 0.078% and 0.55% and 0.518% and 0.35% and 0.26%
- percentage of surface covered by activated cells ([1]; PTC 0.001 M): 0.59% and 0.12% and 0.20%
